Assays:
[1] = target: T1, Mitogen-activated protein kinase 12 (Homo sapiens) (UniProt P53778); assay: Inhibition of SAPK3 at 0.1 uM; values are per cent of control
T1 sequence (whole entry): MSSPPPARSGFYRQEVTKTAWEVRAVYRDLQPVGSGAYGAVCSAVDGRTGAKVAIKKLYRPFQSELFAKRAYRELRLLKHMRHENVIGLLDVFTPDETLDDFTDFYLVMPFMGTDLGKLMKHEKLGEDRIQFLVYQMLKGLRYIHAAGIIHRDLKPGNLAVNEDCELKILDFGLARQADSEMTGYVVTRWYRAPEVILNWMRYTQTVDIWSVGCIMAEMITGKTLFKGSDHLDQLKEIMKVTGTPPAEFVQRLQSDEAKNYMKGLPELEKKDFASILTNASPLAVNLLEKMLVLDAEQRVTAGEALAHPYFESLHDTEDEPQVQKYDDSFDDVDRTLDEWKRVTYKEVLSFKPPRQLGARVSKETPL

[2] = target: T2, Ephrin type-B receptor 4 (Homo sapiens) (UniProt P54760); assay: Inhibition of EphB4 at 1 uM; values are per cent of control
T2 sequence (whole entry): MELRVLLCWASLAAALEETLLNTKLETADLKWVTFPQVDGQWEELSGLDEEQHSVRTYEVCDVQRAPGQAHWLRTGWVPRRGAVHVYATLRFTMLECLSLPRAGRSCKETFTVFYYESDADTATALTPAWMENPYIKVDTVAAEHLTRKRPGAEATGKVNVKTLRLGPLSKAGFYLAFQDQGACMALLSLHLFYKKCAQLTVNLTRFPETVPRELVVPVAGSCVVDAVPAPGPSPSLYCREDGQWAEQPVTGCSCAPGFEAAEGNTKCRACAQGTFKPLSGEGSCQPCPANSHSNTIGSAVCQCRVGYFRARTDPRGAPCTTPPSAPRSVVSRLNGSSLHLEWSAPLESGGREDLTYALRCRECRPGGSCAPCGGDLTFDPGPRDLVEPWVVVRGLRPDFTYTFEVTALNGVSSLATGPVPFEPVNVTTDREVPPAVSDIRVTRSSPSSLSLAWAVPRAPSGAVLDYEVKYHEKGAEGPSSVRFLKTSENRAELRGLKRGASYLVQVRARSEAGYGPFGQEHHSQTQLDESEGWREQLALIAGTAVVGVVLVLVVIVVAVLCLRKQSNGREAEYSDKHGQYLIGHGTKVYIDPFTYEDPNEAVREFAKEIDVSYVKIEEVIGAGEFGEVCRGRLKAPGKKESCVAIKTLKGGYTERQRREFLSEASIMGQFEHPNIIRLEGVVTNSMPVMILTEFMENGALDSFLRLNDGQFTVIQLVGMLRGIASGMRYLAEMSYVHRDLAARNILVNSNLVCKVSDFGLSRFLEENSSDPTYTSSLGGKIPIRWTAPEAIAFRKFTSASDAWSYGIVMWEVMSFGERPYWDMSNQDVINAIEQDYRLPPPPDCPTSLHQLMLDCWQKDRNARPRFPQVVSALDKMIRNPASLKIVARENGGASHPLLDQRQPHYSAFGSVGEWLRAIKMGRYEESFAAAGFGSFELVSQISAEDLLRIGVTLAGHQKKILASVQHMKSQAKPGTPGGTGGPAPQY

[3] = target: Myosin light chain kinase, smooth muscle (Homo sapiens) (UniProt Q15746); assay: Inhibition of MLCK at 1 uM; values are per cent of control
Sequence of Myosin light chain kinase, smooth muscle (Homo sapiens) (Q15746 whole entry): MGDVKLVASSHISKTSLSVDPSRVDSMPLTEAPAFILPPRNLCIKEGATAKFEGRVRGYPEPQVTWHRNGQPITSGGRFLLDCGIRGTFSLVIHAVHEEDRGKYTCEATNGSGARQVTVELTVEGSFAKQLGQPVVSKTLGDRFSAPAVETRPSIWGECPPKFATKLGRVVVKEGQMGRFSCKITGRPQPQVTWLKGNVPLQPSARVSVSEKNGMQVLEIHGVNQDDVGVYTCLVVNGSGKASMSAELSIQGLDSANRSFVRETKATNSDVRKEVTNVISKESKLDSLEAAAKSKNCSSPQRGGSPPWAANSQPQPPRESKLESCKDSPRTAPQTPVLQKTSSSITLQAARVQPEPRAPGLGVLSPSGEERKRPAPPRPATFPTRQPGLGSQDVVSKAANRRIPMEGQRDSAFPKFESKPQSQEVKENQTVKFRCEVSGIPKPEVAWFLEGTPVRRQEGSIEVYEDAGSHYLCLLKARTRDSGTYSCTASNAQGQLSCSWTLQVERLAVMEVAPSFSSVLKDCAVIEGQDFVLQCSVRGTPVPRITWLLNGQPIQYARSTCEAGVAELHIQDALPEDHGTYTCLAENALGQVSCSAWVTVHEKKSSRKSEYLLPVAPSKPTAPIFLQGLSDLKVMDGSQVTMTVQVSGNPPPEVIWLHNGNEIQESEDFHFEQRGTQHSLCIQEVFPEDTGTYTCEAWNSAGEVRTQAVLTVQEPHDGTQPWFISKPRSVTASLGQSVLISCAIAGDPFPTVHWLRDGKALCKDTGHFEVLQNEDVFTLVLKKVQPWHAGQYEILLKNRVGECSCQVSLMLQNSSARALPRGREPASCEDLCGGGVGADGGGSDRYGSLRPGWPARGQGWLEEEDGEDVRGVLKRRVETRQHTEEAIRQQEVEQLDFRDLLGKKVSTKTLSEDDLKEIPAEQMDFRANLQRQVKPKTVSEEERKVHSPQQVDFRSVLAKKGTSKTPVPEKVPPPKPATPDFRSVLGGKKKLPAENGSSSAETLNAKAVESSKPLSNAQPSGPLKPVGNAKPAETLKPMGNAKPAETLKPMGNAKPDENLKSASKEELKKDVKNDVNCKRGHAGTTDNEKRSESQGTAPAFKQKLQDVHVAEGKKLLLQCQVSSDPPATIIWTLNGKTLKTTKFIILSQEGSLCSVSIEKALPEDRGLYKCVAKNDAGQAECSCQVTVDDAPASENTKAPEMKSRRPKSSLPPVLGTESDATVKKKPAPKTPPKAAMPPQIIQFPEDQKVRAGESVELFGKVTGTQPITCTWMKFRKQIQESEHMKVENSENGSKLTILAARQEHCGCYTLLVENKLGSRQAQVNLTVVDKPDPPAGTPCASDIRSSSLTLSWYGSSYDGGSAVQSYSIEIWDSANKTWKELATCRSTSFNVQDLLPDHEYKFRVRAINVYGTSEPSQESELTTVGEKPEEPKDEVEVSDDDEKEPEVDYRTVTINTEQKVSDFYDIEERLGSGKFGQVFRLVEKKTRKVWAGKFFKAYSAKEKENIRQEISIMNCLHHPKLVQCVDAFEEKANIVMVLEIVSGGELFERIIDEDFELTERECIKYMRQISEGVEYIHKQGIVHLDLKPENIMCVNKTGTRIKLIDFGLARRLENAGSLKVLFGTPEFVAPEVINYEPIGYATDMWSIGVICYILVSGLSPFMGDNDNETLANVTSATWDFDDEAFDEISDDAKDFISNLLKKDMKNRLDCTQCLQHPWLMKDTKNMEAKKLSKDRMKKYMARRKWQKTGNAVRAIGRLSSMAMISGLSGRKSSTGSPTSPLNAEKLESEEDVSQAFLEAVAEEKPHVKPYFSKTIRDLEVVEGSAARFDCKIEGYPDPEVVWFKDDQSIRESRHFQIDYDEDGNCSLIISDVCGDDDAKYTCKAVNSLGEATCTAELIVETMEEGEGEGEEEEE

[4] = target: T3, cGMP-dependent protein kinase 1 (Homo sapiens) (UniProt Q13976); assay: Inhibition of PKG1beta at 1 uM; values are per cent of control
T3 sequence (whole entry): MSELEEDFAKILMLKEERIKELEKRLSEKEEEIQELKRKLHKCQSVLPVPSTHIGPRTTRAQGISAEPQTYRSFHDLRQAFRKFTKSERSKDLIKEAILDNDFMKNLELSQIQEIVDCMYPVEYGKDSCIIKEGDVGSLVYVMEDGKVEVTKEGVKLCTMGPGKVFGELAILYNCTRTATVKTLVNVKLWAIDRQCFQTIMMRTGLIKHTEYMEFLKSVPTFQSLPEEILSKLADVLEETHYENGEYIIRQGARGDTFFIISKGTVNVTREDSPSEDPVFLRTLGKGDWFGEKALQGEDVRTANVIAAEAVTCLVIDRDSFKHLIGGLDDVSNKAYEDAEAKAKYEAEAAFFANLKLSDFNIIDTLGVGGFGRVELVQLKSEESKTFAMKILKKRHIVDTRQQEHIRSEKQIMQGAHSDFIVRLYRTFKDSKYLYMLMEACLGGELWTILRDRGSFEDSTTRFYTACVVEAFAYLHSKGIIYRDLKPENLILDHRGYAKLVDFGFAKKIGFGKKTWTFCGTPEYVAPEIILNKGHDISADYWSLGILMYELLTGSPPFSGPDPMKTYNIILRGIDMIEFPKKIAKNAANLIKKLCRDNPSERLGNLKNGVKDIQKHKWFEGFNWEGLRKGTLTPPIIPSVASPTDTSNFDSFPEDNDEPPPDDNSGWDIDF

[5] = target: T4, Aurora kinase A (Homo sapiens) (UniProt O14965); assay: Inhibition of aurora-A at 0.1 uM; values are per cent of control
T4 sequence (whole entry): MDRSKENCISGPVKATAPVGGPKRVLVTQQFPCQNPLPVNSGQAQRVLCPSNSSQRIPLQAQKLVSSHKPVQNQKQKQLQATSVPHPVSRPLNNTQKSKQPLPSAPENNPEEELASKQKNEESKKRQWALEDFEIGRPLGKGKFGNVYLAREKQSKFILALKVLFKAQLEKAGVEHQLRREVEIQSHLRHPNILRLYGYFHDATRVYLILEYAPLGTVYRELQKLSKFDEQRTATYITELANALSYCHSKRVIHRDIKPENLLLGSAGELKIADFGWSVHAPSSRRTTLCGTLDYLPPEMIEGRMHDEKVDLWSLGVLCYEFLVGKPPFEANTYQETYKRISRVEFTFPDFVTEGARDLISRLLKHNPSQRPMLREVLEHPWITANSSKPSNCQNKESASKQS

[6] = target: Tyrosine-protein kinase Fyn (Homo sapiens) (UniProt P06241); assay: Inhibition of Fyn at 0.1 uM; values are per cent of control
Sequence of Tyrosine-protein kinase Fyn (Homo sapiens) (P06241 2-537 limits assumed): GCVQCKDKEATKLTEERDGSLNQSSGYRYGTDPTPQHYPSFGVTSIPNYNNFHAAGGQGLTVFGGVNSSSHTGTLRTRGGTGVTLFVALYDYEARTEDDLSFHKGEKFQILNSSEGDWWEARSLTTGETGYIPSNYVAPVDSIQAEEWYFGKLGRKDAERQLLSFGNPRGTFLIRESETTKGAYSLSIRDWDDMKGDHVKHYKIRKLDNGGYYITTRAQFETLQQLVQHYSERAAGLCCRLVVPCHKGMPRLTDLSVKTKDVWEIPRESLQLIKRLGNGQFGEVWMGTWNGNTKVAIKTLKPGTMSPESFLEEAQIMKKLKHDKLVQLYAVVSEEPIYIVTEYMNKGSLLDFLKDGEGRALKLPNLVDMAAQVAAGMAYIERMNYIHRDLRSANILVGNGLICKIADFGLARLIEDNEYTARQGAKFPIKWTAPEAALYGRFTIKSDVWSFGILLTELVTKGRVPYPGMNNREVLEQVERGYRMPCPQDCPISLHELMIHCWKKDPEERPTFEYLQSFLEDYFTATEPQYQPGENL

residual activity [1] [%]	residual activity [2] [%]	residual activity [3] [%]	residual activity [4] [%]	residual activity [5] [%]	residual activity [6] [%]	SMILES
104	92	63	45	34	30	Cc1ccc2cc(-c3n[nH]c4ccc(NC5CCN(Cc6ccccc6)CC5)cc34)[nH]c2c1
92	62	44	43	5	1	Cc1ccc2cc(-c3n[nH]c4ccc(NC5CCNC5)cc34)[nH]c2c1 (configuration not stated)

Source: ChEMBL document CHEMBL1681705, “Optimisation of ITK inhibitors through successive iterative design cycles” (Bioorg Med Chem Lett, 2011)
